Source: US12514887B2, “Oncolytic tumor viruses and methods of use” (priority 2014, dated 2026)

Columns and labels:
[1] = test system: HS578T subcutaneous xenografts; assay: HS578T subcutaneous xenografts, AdSyn-CO335 study; details: 28 days, 8 mg/kg rapamycin alone, no virus infection
Protocol: Oncolytic activity of AdSyn-CO335 was tested in vitro and in vivo. HS578T cells were infected with a serial dilution of AdSyn-CO335. At 24, 48, 72 and 96 hours after infection, fresh rapamycin or AP21967 was added to 50 nM. The metabolic activity was quantified by WST-1 assay, and was normalized to uninfected cells with a matching drug treatment. […] To evaluate AdSyn-CO335 in vivo, HS578T subcutaneous xenografts were established in mice. […]
Two perpendicular tumor diameters (l and w) were measured weekly to follow tumor progression. Tumor volumes were calculated by use of the modified ellipsoid formula where vol=½ (l*w^2) (Euhus et al., J Surg Oncol 31(4):229-2341986; Tomayko et al., Cancer Chemother Pharmacol 24(3):148-154, 1989).
On days 0, 3, and 6, mice were injected intratumorally with 2×10^8 PFU of adenovirus diluted in 50 μl PBS. […] Body weight was monitored for toxicity, and tumor sizes were measured while blinded to treatment groups. […]

[2] = molecular target: T1, mTOR (Homo sapiens, UniProt P42345+P62942); assay: p70 S6K phosphorylation immunoblot; format: cell-based; details: targeting concentrations
T1 construct: endogenous in cells

CO[C@H]1C[C@@H]2CC[C@@H](C)[C@@](O)(O2)C(=O)C(=O)N2CCCC[C@H]2C(=O)O[C@H]([C@H](C)C[C@@H]2CC[C@@H](O)[C@H](OC)C2)CC(=O)[C@H](C)/C=C(\C)[C@@H](O)[C@@H](OC)C(=O)[C@H](C)C[C@H](C)/C=C/C=C/C=C/1C [rapamycin, Rapamycin]
mean tumor volume [1]: 229±49 mm^3

CO[C@H]1[C@@H](O)[C@H](C)C[C@H](C)/C=C/C=C/C=C(\C)[C@@H](c2c[nH]c3c(C)cccc23)C[C@@H]2CC[C@@H](C)[C@@](O)(O2)C(=O)C(=O)N2CCCC[C@H]2C(=O)O[C@H]([C@H](C)C[C@@H]2CC[C@@H](O)[C@H](OC)C2)C[C@H](O)[C@H](C)/C=C(\C)[C@H]1O [AP21967]
phosphorylation of p70 S6K (mTOR inhibition) [2]: does not inhibit mTOR at targeting concentrations
